Assay results reported in patent US20240342190A1, “METHODS FOR REDUCING ISCHEMIA-REPERFUSION INJURIES” (BioMimetix JV, LLC, priority 2023, published 2024).
“Also recorded” adds a separate entry of the source.

What was measured:
[1] = Experiment 6: BMX-001 plasma and brain concentration measurement (LC/MS/MS); format: in vivo, rat
Description: Young male Wistar rats (n=4) were subjected to 90 min of MCAO and 30 μg/kg of BMX-001 intra-carotid infusion following reperfusion. Blood and brain samples were harvested at 30 min after BMX-001 infusion, stored in −80° C. freezer, and measured using Liquid chromatography-tandem-mass spectroscopy (LC/MS/MS) analysis. Brain tissue was homogenized in water (1 g in 2 mL water). Then, […] or […], two Zr-silica beads (2.5 mm), […] 1% HFBA (heptafluorobutyric acid) in 30% acetonitrile/water+BMX-001-d8 (int. std.,50 nM), and […] of chloroform/isopropanol (4/1, v/v) was added to polypropylene tube and vigorously agitated in FastPrep (Thermo Savant) at speed 6 for 45 s, followed by centrifugation at 16,000 rcf for 5 min at room temperature. The […] aliquot of organic (lower) layer was transferred to polypropylene tube and evaporated to dryness by gentle stream of nitrogen. The dry residue was reconstituted into […] of mobile phase A, and […] injected into LC/MS/MS system. The LC/MS/MS analysis was performed on Agilent 1200 HPLC-AB/SCIEX 5500 QTrap MS/MS instrument. LC column: Phenomenex Kinetex 4×3 mm, C18 guard cartridge at 35° C.; mobile phase A: 0.05% HFBA, 10% acetonitrile, water; mobile phase B: 0.05% HFBA in acetonitrile; elution gradient: 0-1 min 0-70% B, 1-2 min 70% B, 2-2.1 min 70-100% B, 2.1-2.6 min 100% B, 2.6-2.7 min 100-0% B; run time: 4 min. MS/MS transitions: BMX-001 (3×HFBA) at m/z 857.3/599.7. Calibration samples in 2.4 (LOQ)—300 nM brain tissue or 0.47 (LOQ)—30 nM plasma concentration range were prepared by adding known amounts of BMX-001 into blank brain homogenate or plasma, and analyzed alongside study samples as a single analytical batch.

blood brain barrier = experiment: Experiment 7: blood brain barrier permeability after intracarotid infusion (Evans blue content); conditions: non-stroke rats, vs vehicle
Description: 30 μg/kg of BMX-001 (n=4), or same amount of saline (n=4) or mannitol (n=4) was given to normal male Wistar rats through the carotid artery. The rats received 100 μl 2% Evans blue intravenous infusion 30 min later and then intracardially perfused using 100 ml normal saline at 30 min following infusion. Brains were harvested and the Evans blue content was measured spectrophotometrically.

[2] = system: brain tissues and vessels (vascular endothelial wall); experiment: Experiment 7: body weight and brain/vascular histology after intracarotid infusion; conditions: non-stroke rats; 3 days after intracarotid infusion; H&E
Description: 30 μg/kg of BMX-001 (n=4), or same amount of saline (n=4) or Solu-Medrol (n=4) was given to normal Wistar rats through the carotid artery. Rats were recovered for 3 days and perfused intracardially with normal saline followed by 10% formalin. Brains were paraffin embedded, cut, and stained with hematoxylin and eosin. Vascular histologic damage was assessed.

[3] = 30 μg/kg intracarotid after 90 min MCAO, 30 min after infusion, n=4

## CCCCOCC[n+]1ccccc1C1=C2C=CC3=[N+]2[Mn]24[n]5c1ccc5C(c1cccc[n+]1CCOCCCC)=C1C=CC(=[N+]12)C(c1cccc[n+]1CCOCCCC)=c1ccc([n]14)=C3c1cccc[n+]1CCOCCCC [BMX-001, MnTnBuOE-2-PyP^5+]
[1]; [3]
  BMX-001 content in contralateral brain hemisphere: 0.5 ± 0.3 nM
  BMX-001 content in ipsilateral brain hemisphere: 7.4 ± 8.6 nM
  BMX-001 content in plasma: 11.3 ± 1.2 nM
[1]; direct intracarotid infusion
  BMX-001 concentration at the site of brain injury relative to the contralateral hemisphere: 15 fold
Blood brain barrier
  Evans blue content in brain / blood brain barrier permeability, in words: only somewhat higher Evans blue content; also recorded: did not affect the BBB
[2]
  Brain histology / vascular histologic damage, in words: normal; also recorded: no histologic damage
